Test results reported in patent publication US10745434B2, “Uridine phosphoramide prodrug, preparation method therefor, and medicinal uses thereof” (priority 2016, dated 2020).
Like-named read-outs stand apart in the source and are kept apart here.

Tests used:
[1] = system: HCV GT1b replicons; experiment: Anti-HCV replicon activity, HCV GT1b stable transfection replicon cell line (luciferase); format: cell-based, hepatitis C virus (HCV) genotype (GT) 1b
Description: (§1) A hepatitis C virus (HCV) genotype (GT) 1b stable transfection replicon cell line system was used to determine the inhibitory activity of the compounds to the HCV GT1b replicons. In this experiment, the compound 06a (GS-7977) was used as a control compound to monitor the experimental quality.
(§2) [drawing 4] 2. Compound dilution: 20 mM mother liquor was prepared by using 100% DMSO, and the compound DMSO mother liquor was diluted and added to a 96-well experiment plate. The final concentration of the DMSO was 0.5%. In in-vitro anti-HCV activity experiments and cytotoxicity experiments, all compounds had the initial concentration of 20 microns, and were diluted by 5 times of dilution. The final concentration of the DMSO of 6 concentrations were 0.5%. 3. Cell treatment: HCV-1b replicon sub-cells were added to the above 96-well cell plate (8,000 cells/well), and then placed into an incubator of 37 DEG C. and 5% CO2 for culturing for 3 days. 4. Cell activity detection: a cell growth fluorescent titration detection reagent was added to each well; after the cells were cultured for 1 hour in the incubator of 37 DEG C. and 5% CO2, a spectrophotometer detection system Envision was used to detect a Fluorescence signal value. The original data, i.e, relative fluorescence units (RFUs), was used for the calculation of the cell toxicity of the compounds. 5. Anti-HCV replicon activity detection: a luciferase light-emitting substrate bright-GLO was added to each well, and a chemiluminescence detection system Envision was used for detecting a Luminescence signal value in 5 minutes. The original data, i.e., relative light units (RLUs), was used for the calculation of the inhibitory activity of the compounds. 6. Data processing: the RFUs obtained in step 1.3 were processed into a cell activity percentage by using the following formula: […]
The RLUs obtained in step 1.4 were processed into a inhibition percentage by using the following formula:
[formula] *CPD: signal values of compound wells HPE (high percent effect): 100% effective action control well signal value, with only DMEM culture solution in the wells; The ZPE (zero percent effect): noneffective control well signal value, with 0.5% DMSO to replace the compound.
(§3) The cell activity percentage and the inhibition percentage were respectively imported into GraphPad Prism software for data processing to obtain curves corresponding to the compounds and their values of cytotoxicity (CC50) and inhibitory activity (ECD50) to the HCV replicons.

[2] = Human plasma stability; format: in vitro ADME; settings: test concentration 2 μM
Description: 3. Human Plasma Stability (Test Concentration: 2 μM), See Table 4.

[3] = Human liver S9 stability; format: in vitro ADME; settings: human liver S9, test concentration 1 μM
Description: 4. Human Liver S9 Stability Parameters (Test Concentration: 1 μM), See Table 5.

[4] = Simulated intestinal fluid stability; format: in vitro ADME; settings: test concentration 10 μM
Description: 2. Simulated Intestinal Fluid Stability (Test Concentration: 10 μM), See Table 3: […]

[5] = system: HCV-1b replicon sub-cells; experiment: Cytotoxicity in HCV-1b replicon cells (cell growth fluorescent titration); format: cell-based; settings: HCV GT1b replicon cells, 3 days
Description: as §1, §2, §3

[6] = Simulated gastric liquid stability; format: in vitro ADME
[7] = Rat in-vivo metabolism and tissue distribution: metabolite TSL1100 in liver after intragastric administration; design: species or system SD rats; settings: rat PO 50 mg/kg
Description: 18 SD rats (male, 6-9 weeks old, purchased from Vital River Animal center) were divided into 6 groups randomly, 3 rats in each group, fasted for 12 hours first before administration, freely fed with water during the fasting period. After the administration is carried out for 4 hours, the fasting was ended. 50 mg compound was precisely weighed on a balance, and 95% (0.5% of cd))/5% solutol aqueous solution was added and uniformly mixed, and subjected to ultrasonic treatment for later use. The drug delivery dose was 50 mg/kg; the drug delivery concentration was […]; and the drug delivery volume was […].
The sample collection scheme: taking blood and liver tissues after carrying out intragastric administration on rats for 1 h, 2 h, 3 h, 6 h, 12 h and 24 h.
The liver tissue sample treatment method: taking a rat tissue sample in a plastic EP tube, and adding 5 times (w:v) 1.75 mL MeOH and 5 μL 50% KOH aqueous solution together with 0.75 mL 268 mM EDTA solution to prepare a solution, uniformly mixing and taking 60 μL sample, adding a 240 μL internal standard solution for mixing, carrying out vortex oscillation for 2 minutes, and centrifuging for 10 minutes (13000 rpm and 4 DEG C.), taking 30 μL of supernate, adding 30 μL of water, carrying out vortex mixing, centrifuging at 4 DEG C., and then taking 5 μL supernate for […] analysis.
LC-MS/MS-O (API 4000) liquid mass spectrometer and chromatographic column are adopted: ACQUITY UPLC BEH C18 130 Å 1.7 μm 2.1×50 mm the composition com: and tomitamide was adopted as an internal standard compound, gradient elution analysis is carried out after the sample is fed into the sample, and the internal standard is recorded respectively, the retention time and the peak area of the to-be-tested compound and the metabolite TSL 1100, the software phoenix winnonlin 6.2. The method is analyzed by an srms quantitative detection method.

[8] = Cytotoxicity in HCV-1b replicon cells (cell growth fluorescent titration); format: cell-based; settings: HCV genotype 1b stably transfected replicon cells, HCV GT1b replicon cells
Description: as §1, §2, §3

[9] = target: T1, herg potassium ion channel (Homo sapiens, UniProt Q12809); experiment: In vitro cardiotoxicity, hERG manual patch clamp in CHO cells; format: cell-based
T1 construct: host or cells: CHO cells stably expressing hERG
T1 sequence (Q12809 whole entry): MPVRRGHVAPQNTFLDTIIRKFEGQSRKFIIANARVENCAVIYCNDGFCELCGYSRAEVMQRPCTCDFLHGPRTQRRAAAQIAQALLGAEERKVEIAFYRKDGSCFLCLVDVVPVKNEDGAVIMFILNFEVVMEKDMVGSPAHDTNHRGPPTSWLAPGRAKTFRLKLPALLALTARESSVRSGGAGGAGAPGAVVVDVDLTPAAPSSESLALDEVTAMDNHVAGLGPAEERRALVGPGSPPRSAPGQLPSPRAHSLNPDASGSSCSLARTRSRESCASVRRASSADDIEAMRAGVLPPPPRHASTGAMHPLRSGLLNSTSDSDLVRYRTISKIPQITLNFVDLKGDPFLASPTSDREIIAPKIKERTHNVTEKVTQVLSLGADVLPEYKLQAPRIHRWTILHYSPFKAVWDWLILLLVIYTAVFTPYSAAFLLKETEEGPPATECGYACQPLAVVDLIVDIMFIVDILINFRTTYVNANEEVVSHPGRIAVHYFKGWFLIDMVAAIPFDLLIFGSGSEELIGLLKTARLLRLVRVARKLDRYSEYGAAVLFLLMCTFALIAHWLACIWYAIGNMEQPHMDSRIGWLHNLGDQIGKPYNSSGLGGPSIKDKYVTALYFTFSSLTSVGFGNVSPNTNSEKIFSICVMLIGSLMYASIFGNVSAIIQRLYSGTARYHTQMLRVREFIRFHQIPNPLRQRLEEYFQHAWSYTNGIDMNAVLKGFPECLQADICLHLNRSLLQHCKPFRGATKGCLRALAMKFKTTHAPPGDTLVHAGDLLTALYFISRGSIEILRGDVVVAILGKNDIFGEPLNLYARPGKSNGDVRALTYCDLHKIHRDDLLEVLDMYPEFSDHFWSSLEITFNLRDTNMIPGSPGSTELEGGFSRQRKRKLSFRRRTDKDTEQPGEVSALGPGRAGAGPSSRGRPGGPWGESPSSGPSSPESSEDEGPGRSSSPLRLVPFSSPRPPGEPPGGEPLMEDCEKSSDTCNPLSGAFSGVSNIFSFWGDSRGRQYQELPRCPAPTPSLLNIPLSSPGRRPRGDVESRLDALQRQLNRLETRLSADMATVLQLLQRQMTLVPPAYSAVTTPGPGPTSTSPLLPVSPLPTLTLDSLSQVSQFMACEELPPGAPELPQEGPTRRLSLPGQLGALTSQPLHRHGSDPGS
Description: The experiment adopted CHO cells which can stably express the herg potassium ion channel from AVivaBiosciences company, wherein the cells were incubated in a constant-humidity environment at the temperature of 37 DEG C. with 5% CO2.
The compounds were tested on a Multiclamp patch-clamp amplifier at room temperature; the output signals were digitized by using a DLigital 1440 A/D-D/A board; the PCLAMP 10 software was used for recording and controlling. The minimum sealing resistance was set to 500 MOhms and the minimum specific hERG current was set to 0.4 nA for quality control.
Clampfit (V10.2, Molecular Devices), Excel 2003 and GraphPad Prism 5.0 were used for data analysis.

[10] = HCV GT1b replicons, 3 days, maximum test concentration 20 μM, read-out: EC50 anti-HCV replicon activity
[11] = Hepatitis C virus, GT1B, 72 h, read-out: EC50 anti-HCV replicon activity, HCV GT1b replicons, 3 days, maximum test concentration 20 μM
[12] = read-out: EC50 anti-HCV replicon activity, HCV GT1b replicons, 3 days, maximum test concentration 20 μM

CC(C)OC(=O)C(C)NP(=O)(OCc1ccccc1)OCC1OC(n2ccc(=O)[nH]c2=O)C(C)(F)C1O (mixture of isomers) [Compound 01]
EC50 [1, 10]: 6.12 µM
% 0 min residual percentage [2]: 100%
% 10 min residual percentage [2]: 98.9%
% 30 min residual percentage [2]: 81.7%
% 60 min residual percentage [2]: 80.9%
% 120 min residual percentage [2]: 74.9%
CLlint(s9) [3]: 7.2 µL/min/mg
T1/2 [3]: 1.61 h
Remaining % (NCF = 1 h) [3]: 67.4%
Remaining % (T = 1 h) [3]: 56.2%
CLlint(s9) ([3]; scaled per kg): 1.51 mL/h/kg
% 0 h residual percentage [4]: 100%
% 1 h residual percentage [4]: 1.69%
% 2 h residual percentage [4]: 0.08%
% 6 h residual percentage [4]: 0.00%
% 24 h residual percentage [4]: 0.00%
CC50 [5]: > 20 µM
% 0 h residual percentage ([6]; test concentration 10 μM): 100%
% 1 h residual percentage ([6]; test concentration 10 μM): 96.81%
% 2 h residual percentage ([6]; test concentration 10 μM): 105.99%
% 6 h residual percentage ([6]; test concentration 10 μM): 100.76%
% 24 h residual percentage ([6]; test concentration 10 μM): 71.32%

CC(C)OC(=O)[C@H](C)NP(=O)(OCc1ccccc1)OC[C@H]1O[C@@H](n2ccc(=O)[nH]c2=O)[C@](C)(F)[C@@H]1O (single isomer, unassigned) [Compound 01a]
EC50 [1, 10]: 0.301 µM
AUCExtra [7]: 4.74%
AUMCExtra [7]: 18.9%
Tlast [7]: 24.0 h
CC50 [5]: > 20 µM

CC(C)OC(=O)[C@H](C)NP(=O)(OCc1ccccc1)OC[C@H]1O[C@@H](n2ccc(=O)[nH]c2=O)[C@](C)(F)[C@@H]1O (single isomer, unassigned) [Compound 01b]
EC50 [1, 10]: 9.15 µM
AUCExtra [7]: 6.61%
AUMCExtra [7]: 19.8%
Tlast [7]: 12.0 h
CC50 [5]: > 20 µM

Cc1ccccc1COP(=O)(N[C@@H](C)C(=O)OC(C)C)OC[C@H]1O[C@@H](n2ccc(=O)[nH]c2=O)[C@](C)(F)[C@@H]1O (single isomer, unassigned) [Unresolved enantiomer 02 of patent compounds in 2013]
EC50 [1, 11]: 10 to 20 µM
EC50 [1, 12]: 17.7 µM
% 0 min residual percentage [2]: 100%
% 10 min residual percentage [2]: 73.3%
% 30 min residual percentage [2]: 69.5%
% 60 min residual percentage [2]: 62.8%
% 120 min residual percentage [2]: 58.8%
CLlint(s9) [3]: 72.6 µL/min/mg
half-life at 1 μM [3]: 0.158 h
Remaining % (NCF = 1 h) [3]: 64.7%
Remaining % (T = 1 h) [3]: 1.1%
CLlint(s9) ([3]; scaled per kg): 15.34 mL/h/kg
% 0 h residual percentage [4]: 100%
% 1 h residual percentage [4]: 0.63%
% 2 h residual percentage [4]: 0.08%
% 6 h residual percentage [4]: 0.00%
% 24 h residual percentage [4]: 0.00%
CC50 at 3 days [8]: > 20 µM
% 0 h residual percentage ([6]; test concentration 10 μM): 100%
% 1 h residual percentage ([6]; test concentration 10 μM): 82.70%
% 2 h residual percentage ([6]; test concentration 10 μM): 82.45%
% 6 h residual percentage ([6]; test concentration 10 μM): 74.80%
% 24 h residual percentage ([6]; test concentration 10 μM): 41.56%

CCOc1ccc2ccc(=O)oc2c1 [7-Ethoxycumarin]
CLlint(s9) [3]: 194.2 µL/min/mg
half-life at 1 μM [3]: 0.06 h
Remaining % (NCF = 1 h) [3]: 103.3%
Remaining % (T = 1 h) [3]: 0.0%
CLlint(s9) ([3]; scaled per kg): 41.01 mL/h/kg

O=c1ccc2ccc(O)cc2o1 [7-Hydroxycoumarin]
CLlint(s9) [3]: 7.2 µL/min/mg
half-life at 1 μM [3]: 1.61 h
Remaining % (NCF = 1 h) [3]: 67.4%
Remaining % (T = 1 h) [3]: 56.2%
CLlint(s9) ([3]; scaled per kg): 1.51 mL/h/kg

O=C(O)CCCc1ccc(N(CCCl)CCCl)cc1 [Chlorambucil]
% 0 h residual percentage [4]: 100%
% 1 h residual percentage [4]: 43.83%
% 2 h residual percentage [4]: 3.91%
% 6 h residual percentage [4]: 0.00%
% 24 h residual percentage [4]: 0.00%

COc1ccccc1COP(=O)(N[C@@H](C)C(=O)OC(C)C)OC[C@H]1O[C@@H](n2ccc(=O)[nH]c2=O)[C@](C)(F)[C@@H]1O (some centres unmarked) [Compound 03]
EC50 [1, 11]: > 20 µM
CC50 at 3 days [8]: > 20 µM

Cc1ccc(COP(=O)(N[C@@H](C)C(=O)OC(C)C)OC[C@H]2O[C@@H](n3ccc(=O)[nH]c3=O)[C@](C)(F)[C@@H]2O)cc1 (some centres unmarked) [Compound 04]
EC50 [1, 11]: 10 to 20 µM
EC50 [1, 12]: 15.2 µM
CC50 at 3 days [8]: > 20 µM

COc1ccc(COP(=O)(N[C@@H](C)C(=O)OC(C)C)OC[C@H]2O[C@@H](n3ccc(=O)[nH]c3=O)[C@](C)(F)[C@@H]2O)cc1 (some centres unmarked) [Compound 05]
EC50 [1, 11]: > 20 µM
CC50 at 3 days [8]: > 20 µM

COc1ccc2[nH]c([S+]([O-])Cc3ncc(C)c(OC)c3C)nc2c1 (centres unmarked) [Omeprazole]
% 0 h residual percentage ([6]; 20 μM): 100%
% 1 h residual percentage ([6]; 20 μM): 5.24%
% 2 h residual percentage ([6]; 20 μM): 2.76%
% 6 h residual percentage ([6]; 20 μM): 0.20%
% 24 h residual percentage ([6]; 20 μM): 0.00%

CC(C)OC(=O)[C@H](C)NP(=O)(OC[C@H]1O[C@@H](n2ccc(=O)[nH]c2=O)[C@](C)(F)[C@@H]1O)Oc1ccccc1 (some centres unmarked) [Patent compound 06 in 2008]
EC50 [1, 11]: < 10 µM
EC50 [1, 12]: 9.82 µM
% 0 min residual percentage [2]: 100%
% 10 min residual percentage [2]: 78.8%
% 30 min residual percentage [2]: 70.9%
% 60 min residual percentage [2]: 72.0%
% 120 min residual percentage [2]: 65.3%
CLlint(s9) [3]: 6.0 µL/min/mg
half-life at 1 μM [3]: 1.92 h
Remaining % (NCF = 1 h) [3]: 64.0%
Remaining % (T = 1 h) [3]: 58.6%
CLlint(s9) ([3]; scaled per kg): 1.27 mL/h/kg
% 0 h residual percentage [4]: 100%
% 1 h residual percentage [4]: 0.00%
% 2 h residual percentage [4]: 0.00%
% 6 h residual percentage [4]: 0.00%
% 24 h residual percentage [4]: 0.00%
CC50 at 3 days [8]: > 20 µM
% 0 h residual percentage ([6]; test concentration 10 μM): 100%
% 1 h residual percentage ([6]; test concentration 10 μM): 95.19%
% 2 h residual percentage ([6]; test concentration 10 μM): 98.47%
% 6 h residual percentage ([6]; test concentration 10 μM): 84.08%
% 24 h residual percentage ([6]; test concentration 10 μM): 49.36%

CC(C)OC(=O)[C@H](C)N[P@](=O)(OC[C@H]1O[C@@H](n2ccc(=O)[nH]c2=O)[C@](C)(F)[C@@H]1O)Oc1ccccc1 [Patent compound 06a in 2010]
EC50 [1, 11]: 0.719 µM
CC50 at 3 days [8]: > 3 µM
IC50 [9]: > 10 µM

CC(C)[N+](C)(CCOC(=O)C1c2ccccc2Oc2ccccc21)C(C)C [Propantheline]
% 0 min residual percentage [2]: 100%
% 10 min residual percentage [2]: 53.3%
% 30 min residual percentage [2]: 14.3%
% 60 min residual percentage [2]: 2.2%
% 120 min residual percentage [2]: 0.0%
